Test results reported in ChEMBL document CHEMBL1649439, “Prevalence of aac(6')-Ib-cr encoding a ciprofloxacin-modifying enzyme among Enterobacteriaceae blood isolates in Korea” (2009).
In brackets after ≈: the same amount, converted by molar mass.

Key:
Assay type in all cases: functional
[1] = test system: Escherichia coli; assay: Antimicrobial activity against Escherichia coli isolate 48 transconjugant expressing aac(6')-Ib-cr gene
[2] = test system: Enterobacter cloacae; assay: Antimicrobial activity against Enterobacter cloacae isolate 37 expressing aac(6')-Ib-cr gene
[3] = test system: Klebsiella pneumoniae; assay: Antimicrobial activity against Klebsiella pneumoniae isolate 202 expressing aac(6')-Ib-cr gene
[4] = test system: Enterobacter cloacae; assay: Antimicrobial activity against Enterobacter cloacae isolate 37 transconjugant expressing aac(6')-Ib-cr gene
[5] = test system: Enterobacter cloacae; assay: Antimicrobial activity against Enterobacter cloacae isolate 153 expressing aac(6')-Ib-cr gene
[6] = test system: Enterobacter cloacae; assay: Antimicrobial activity against Enterobacter cloacae isolate 101 expressing aac(6')-Ib-cr gene
[7] = test system: Klebsiella pneumoniae; assay: Antimicrobial activity against Klebsiella pneumoniae isolate 135 transconjugant expressing aac(6')-Ib-cr gene
[8] = test system: Escherichia coli; assay: Antimicrobial activity against Escherichia coli isolate 17 transconjugant expressing aac(6')-Ib-cr gene
[9] = test system: Escherichia coli; assay: Antimicrobial activity against Escherichia coli isolate 48 expressing aac(6')-Ib-cr gene
[10] = test system: Klebsiella pneumoniae; assay: Antimicrobial activity against Klebsiella pneumoniae isolate 135 expressing aac(6')-Ib-cr gene
[11] = test system: Klebsiella pneumoniae; assay: Antimicrobial activity against Klebsiella pneumoniae isolate 132 transconjugant expressing aac(6')-Ib-cr gene
[12] = test system: Enterobacter cloacae; assay: Antimicrobial activity against Enterobacter cloacae isolate 101 transconjugant expressing aac(6')-Ib-cr gene
[13] = test system: Escherichia coli; assay: Antimicrobial activity against Escherichia coli isolate 17 expressing aac(6')-Ib-cr gene
[14] = test system: Klebsiella pneumoniae; assay: Antimicrobial activity against Klebsiella pneumoniae isolate 202 transconjugant expressing aac(6')-Ib-cr gene
[15] = test system: Klebsiella pneumoniae; assay: Antimicrobial activity against Klebsiella pneumoniae isolate 132 expressing aac(6')-Ib-cr gene
[16] = test system: Enterobacter cloacae; assay: Antimicrobial activity against Enterobacter cloacae isolate 153 transconjugant expressing aac(6')-Ib-cr gene
[17] = test system: Escherichia coli; assay: Antimicrobial activity against azide-resistant Escherichia coli J53
[18] = test system: Escherichia coli; assay: Ratio of MIC for Escherichia coli isolate 48 transconjugant to MIC for azide-resistant Escherichia coli […]
[19] = test system: Escherichia coli; assay: Ratio of MIC for Escherichia coli isolate 17 transconjugant to MIC for azide-resistant Escherichia coli […]

Molecule | MIC [1] [µg/mL] | MIC [2] [µg/mL] | MIC [3] [µg/mL] | MIC [4] [µg/mL] | MIC [5] [µg/mL] | MIC [6] [µg/mL] | MIC [7] [µg/mL] | MIC [8] [µg/mL] | MIC [9] [µg/mL] | MIC [10] [µg/mL] | MIC [11] [µg/mL] | MIC [12] [µg/mL] | MIC [13] [µg/mL] | MIC [14] [µg/mL] | MIC [15] [µg/mL] | MIC [16] [µg/mL] | MIC [17] [µg/mL] | fold change (FC) [18] | fold change (FC) [19]
CO/N=C(\C(=O)N[C@@H]1C(=O)N2C(C(=O)O)=C(COC(C)=O)CS[C@H]12)c1csc(N)n1 [CEFOTAXIME] | > 256 | 128 (≈ 281 µM) | > 256 | 64 (≈ 141 µM) | 256 (≈ 562 µM) | 256 (≈ 562 µM) | 256 (≈ 562 µM) | 256 (≈ 562 µM) | > 256 | 256 (≈ 562 µM) | > 256 | 32 (≈ 70.3 µM) | 256 (≈ 562 µM) | 16 (≈ 35.1 µM) | > 256 | 32 (≈ 70.3 µM) | 0.06 (≈ 0.132 µM) |  | 
CC(C)(O/N=C(\C(=O)N[C@@H]1C(=O)N2C(C(=O)[O-])=C(C[n+]3ccccc3)CS[C@H]12)c1csc(N)n1)C(=O)O [CEFTAZIDIME] | > 32 | 8 (≈ 14.6 µM) | > 32 | 2 (≈ 3.66 µM) | > 32 | > 32 | > 32 | 16 (≈ 29.3 µM) | > 32 | > 32 | 16 (≈ 29.3 µM) | 2 (≈ 3.66 µM) | 32 (≈ 58.5 µM) | 1 (≈ 1.83 µM) | 32 (≈ 58.5 µM) | 1 (≈ 1.83 µM) | 0.25 (≈ 0.457 µM) |  | 
O=C(O)c1cn(C2CC2)c2cc(N3CCNCC3)c(F)cc2c1=O [CIPROFLOXACIN] |  |  | > 16 |  |  |  | 1 (≈ 3.02 µM) |  | > 16 | > 16 | 0.03 (≈ 0.0905 µM) |  | > 16 | 0.03 (≈ 0.0905 µM) | 0.125 (≈ 0.377 µM) |  |  |  | 
COc1c(N2C[C@@H]3CCCN[C@@H]3C2)c(F)cc2c(=O)c(C(=O)O)cn(C3CC3)c12 [MOXIFLOXACIN] |  |  | 16 (≈ 39.9 µM) |  |  |  | 1 (≈ 2.49 µM) |  |  | > 16 | 0.06 (≈ 0.149 µM) |  | > 16 | 0.06 (≈ 0.149 µM) | 0.125 (≈ 0.311 µM) |  |  |  | 
CCn1cc(C(=O)O)c(=O)c2ccc(C)nc21 [NALIDIXIC ACID] | 8 (≈ 34.4 µM) | > 256 | > 256 | 8 (≈ 34.4 µM) | > 256 | > 256 | 32 (≈ 138 µM) | 8 (≈ 34.4 µM) | > 256 | > 256 | 8 (≈ 34.4 µM) | 8 (≈ 34.4 µM) | > 256 | 8 (≈ 34.4 µM) | 8 (≈ 34.4 µM) | 8 (≈ 34.4 µM) | 8 (≈ 34.4 µM) |  | 
CCn1cc(C(=O)O)c(=O)c2cc(F)c(N3CCNCC3)cc21 [NORFLOXACIN] | 0.25 (≈ 0.783 µM) | > 16 | > 16 | 0.25 (≈ 0.783 µM) | > 16 | > 16 | 8 (≈ 25.1 µM) | 0.25 (≈ 0.783 µM) | > 16 | > 16 | 0.125 (≈ 0.391 µM) | 0.25 (≈ 0.783 µM) | > 16 | 0.125 (≈ 0.391 µM) | 0.5 (≈ 1.57 µM) | 0.25 (≈ 0.783 µM) | 0.06 (≈ 0.188 µM) | 2 | 2
NC[C@H]1O[C@H](O[C@H]2[C@H](O)[C@@H](O[C@H]3O[C@H](CO)[C@@H](O)[C@H](N)[C@H]3O)[C@H](N)C[C@@H]2N)[C@H](N)C[C@@H]1O [TOBRAMYCIN] | 8 (≈ 17.1 µM) | > 16 | > 16 | > 16 | > 16 | > 16 | > 16 | 16 (≈ 34.2 µM) | 16 (≈ 34.2 µM) | > 16 | 16 (≈ 34.2 µM) | 2 (≈ 4.28 µM) | > 16 | > 16 | > 16 | > 16 | 0.25 (≈ 0.535 µM) |  | 
GENTAMICIN | 0.25 | > 32 | > 32 | > 32 | > 32 | > 32 | > 32 | 32 | 0.25 | > 32 | 32 | 0.25 | > 32 | > 32 | > 32 | > 32 | 0.25 |  | 
